Data published in PubChem BioAssay (NCI).
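Five concentrations, 48 hours, 96-well plates. GI50: concentration for 50% inhibition of growth. TGI: concentration producing complete growth inhibition.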

Experiments:
Assay in all cases: NCI anticancer screen, dose series, 48 h
[1] = system: A498 renal
[2] = system: A549 NSCLC
[3] = system: KM12 colon
[4] = system: M14 melanoma
[5] = system: NCI-H23 lung
[6] = system: NCI-H522 lung
[7] = system: OVCAR-8 ovarian
[8] = system: UO-31 renal

SMILES | TGI [1] [µM] | TGI [2] [µM] | TGI [3] [µM] | TGI [4] [µM] | TGI [5] [µM] | TGI [6] [µM] | TGI [7] [µM] | TGI [8] [µM] | GI50 [1] [µM] | GI50 [2] [µM] | GI50 [3] [µM] | GI50 [4] [µM] | GI50 [5] [µM] | GI50 [6] [µM] | GI50 [7] [µM] | GI50 [8] [µM]
N#CNC(N)=NCc1ccccc1 | > 100 | > 100 | > 100 | > 100 | > 100 | > 100 | > 100 | > 100 |  |  |  |  |  |  |  | 
Cc1ccc(O)cc1Nc1ccnc2ccc(S(C)(=O)=O)cc12 | 6.18 | > 25 | > 25 | > 21.8 | > 25 | > 22.1 | 16.4 | 4.81 | 1.75 | 2.76 | > 25 | 0.939 | 5.97 | 5.08 | 3.53 | 0.496
CCn1cc(C(=O)O)c(=O)c2cc(F)c(N3CCN(S(=O)(=O)c4cccc5ccccc45)CC3)cc21 | > 100 | > 100 | 9.2 | > 100 | 12.1 | 8.04 | > 100 | 8.95 | 2.74 | 2.87 | 2.96 | 4.37 | 3.13 | 2.78 | 3.09 | 2.21
CCNc1nc(O)c(/C=C2\C=Nc3ncccc32)s1 | 6.15 | > 100 | 12.4 | 26.9 | 11.5 | 8.83 | > 100 | > 100 | 2.12 | 16.5 | 3.05 | 4.45 | 2.57 | 1.25 | 3.27 | 3.44
CCN(C)c1nc(N(C)CC)c2nc(N(C)CC)nc(N(C)CC)c2n1 | > 100 | > 100 | > 100 | > 100 | > 100 | > 100 | > 100 | > 100 |  |  |  |  |  |  |  | 
OC1(c2ccc(Cl)c(C(F)(F)F)c2)CCN(CCCC(c2ccc(F)cc2)c2ccc(F)cc2)CC1 | 1.12 | 1.58 | 1.62 | 1.52 | 1.62 | 1.79 | 1.53 | 2.72 | 0.515 | 0.837 | 0.864 | 0.828 | 0.83 | 0.902 | 0.823 | 0.714
O=C(OCc1ccc2c(Br)cc(Br)c(O)c2n1)c1cc2ccccc2[nH]1 | 2.96 | 3.62 | 3.09 | 2.15 | 3.14 | 2.19 | 2.82 | 1.19 | 1.56 | 1.42 | 1.52 | 0.763 | 1.44 | 0.552 | 0.829 | 0.406
Nc1nc2c(c3cnccc13)C(c1ccc(Cl)c(Cl)c1)Cc1cnccc1-2 (stereo not given) | 1.01 | 4.84 | 12.6 | 2.16 | 9.13 | 0.73 | 15 | 6.72 | 0.227 | 0.665 | 0.48 | 0.36 | 1.14 | 0.249 | 2.69 | 1.54
Cc1cccc(NC(=O)c2sc3nc4c(cc3c2N)C(=O)CCC4)c1 | 0.801 | > 100 | > 100 | > 34.6 | > 60.4 | 1.68 | > 91.9 | 51.2 | 0.0656 | 0.335 | 0.215 | 0.179 | 0.67 | 0.124 | 1.23 | 13.9
C[C@]12CC[C@H]3[C@@H](CCC4=CC(=O)CC[C@@]43C)[C@@H]1CC[C@@H]2c1csc(N)n1 | 12.4 | 31.6 | 11.6 | 21.4 | 19.9 | 24.9 | 26.7 | 11.2 | 2.51 | 5.77 | 3 | 5.16 | 2.85 | 7.18 | 3.42 | 2.46
O=C1Oc2ccccc2C(=O)/C1=C1/C=C(c2ccccc2)SS1 | > 100 | > 100 | > 100 | > 100 | > 100 | > 100 | > 100 | > 100 |  |  |  |  |  |  |  | 
CC(Br)C(=O)NC(CO)C(=O)O (stereo not given) | > 100 | > 100 | > 100 | > 100 | > 100 | > 100 | > 100 | > 100 |  |  |  |  |  |  |  | 
O=C1/C(=C/c2ccc(Cl)c(Cl)c2)CN(C(=O)CCN2CCC(=NO)CC2)C/C1=C\c1ccc(Cl)c(Cl)c1 | 2.89 | 6.47 | 1.14 | 2.23 | 3.01 | 1.59 | 2.62 | 1.34 | 1.44 | 2.15 | 0.368 | 0.782 | 1.04 | 0.369 | 0.651 | 0.654
Cc1ccc2c(-c3ccnc(Nc4ccc5c(c4)OCCO5)n3)c(-c3ccc(C(F)(F)F)cc3)nn2n1 | 18 | > 25 | > 25 | 9.43 | > 25 | 21.4 | > 25 | > 25 | 2.13 | 13.3 | 14.1 | 3.58 | 14.3 | 4.57 | 8.48 | 2.41
OCc1cc2c(cn1)[nH]c1ccc(NCc3ccccc3)cc12 | 71.7 | > 100 | 43.3 | 37.5 | > 100 | 52 | > 100 | 82.7 |  |  |  |  |  |  |  | 
COc1ccc2c(c1)C(=O)c1c-2c(Nc2ccccc2OC)nc2ccccc12 | > 100 | > 100 | > 100 | > 100 | > 100 | > 100 | > 100 | > 100 | > 100 | > 100 | > 100 | > 100 | > 100 | > 100 | > 100 | > 100
O=C(Nc1cccc(-n2cc(-c3ccncc3)c(-c3cc(O)cc(Cl)c3)n2)c1)c1ccc(N2CCOCC2)c(C(F)(F)F)c1 | 73.2 | 18 | > 100 | 2.74 | 38.8 | 12.1 | > 100 | 15.5 | 19.4 | 1.64 | 1.21 | 0.774 | 3.65 | 0.934 | 1.64 | 1.41
Cn1c([N+](=O)[O-])cnc1C=C1C(=O)c2ccccc2C1=O | 22.6 | 41.3 | 32.7 | 16.6 | 20.5 | 4.37 | 6.54 | 16.2 | 7.05 | 12.2 | 11.1 | 3.83 | 4.9 | 1.89 | 2.18 | 3.83
O=c1c2ccccc2sc2c(CO)ccc(NCCN3CCCCC3)c12 | 9.61 | 12.8 | 14.8 | 3.82 | 10.3 | 3.86 | 15.5 | 4.98 |  |  |  |  |  |  |  | 
O=C1NC(=N[C@@H](CO)c2ccccc2)S/C1=C\c1ccc2ncccc2c1 | > 21.9 | > 25 | > 25 | > 25 | > 25 | > 20 | > 25 | > 21.2 | 4.29 | 9.83 | 10.8 | 6.16 | 8.92 | 5.93 | 8.93 | 4.53
COc1cc2c(cc1Nc1nc(N3CCc4ccccc43)c3cc[nH]c3n1)N(C(=O)CN(C)C)CC2 | 14.1 | 8.88 | 2.81 | 1.51 | 14.6 | 11.7 | 3.84 | 11.6 | 8.43 | 3.34 | 1.49 | 0.6 | 4.98 | 3.94 | 1.67 | 5.26
CNC(=O)c1ncccc1Nc1nc(Nc2cc3c(cc2OC)CCCN3C(=O)CN(C)C)nc2[nH]ccc12 | 5.46 | 4.39 | 3.04 | 5.78 | 3.07 | 2.84 | 5.1 | 6.45 | 1.18 | 0.845 | 0.728 | 1.87 | 0.476 | 0.638 | 1.25 | 2.71
COc1cc(CNc2nc3cc(N)cc(N)c3nc2-c2ccccc2)cc(OC)c1 | > 100 | > 100 | 73.3 | 49.3 | > 100 | 23 | 8.1 | > 100 | 90.8 | 33.2 | 4.28 | 10.1 | 16.2 | 2.88 | 2.8 | 4.05
